Among the data in PMC8707548, “Restoring Tumour Selectivity of the Bioreductive Prodrug PR-104 by Developing an Analogue Resistant to Aerobic Metabolism by Human Aldo-Keto Reductase 1C3” (Pharmaceuticals, 2021) are KM values, retold here.

The structures appear in SMILES notation.

The experiment deals with T1, recombinant AKR1C3 (human aldo-keto reductase 1C3) (Homo sapiens, UniProt P42330).
T1 construct: recombinant enzyme
T1 sequence (P42330 1-323): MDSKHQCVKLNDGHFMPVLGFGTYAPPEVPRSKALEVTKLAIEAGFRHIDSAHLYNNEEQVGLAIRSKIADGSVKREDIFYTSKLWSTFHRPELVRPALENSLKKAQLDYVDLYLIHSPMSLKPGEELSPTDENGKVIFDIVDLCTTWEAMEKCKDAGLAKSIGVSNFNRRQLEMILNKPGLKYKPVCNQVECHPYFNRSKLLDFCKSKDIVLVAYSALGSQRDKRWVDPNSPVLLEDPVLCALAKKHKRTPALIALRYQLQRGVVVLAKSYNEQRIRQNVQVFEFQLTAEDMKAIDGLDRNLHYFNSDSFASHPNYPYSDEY
Briefly: absorbance at […] nm, Michaelis-Menten fit. The experiment is classed as biochemical. The conditions noted are these: 0.25 mM NAD(P)H, 10 mM Tris-Cl pH 7.0, 4% DMSO.

As to `CS(=O)(=O)OCCN(CCBr)c1c(C(=O)NCCO)cc([N+](=O)[O-])cc1[N+](=O)[O-]` [PR-104A], the KM entry was “kinetic parameters calculated for each (D)NBM using the following extinction coefficients: PR-104A”.
